Here are results for 34 compounds from patent US20140155376A1, “PYRROLOPYRAZINE KINASE INHIBITORS” (Hoffmann-La Roche Inc., priority 2010, published 2014).

T1 sequence (P52333 810-1124): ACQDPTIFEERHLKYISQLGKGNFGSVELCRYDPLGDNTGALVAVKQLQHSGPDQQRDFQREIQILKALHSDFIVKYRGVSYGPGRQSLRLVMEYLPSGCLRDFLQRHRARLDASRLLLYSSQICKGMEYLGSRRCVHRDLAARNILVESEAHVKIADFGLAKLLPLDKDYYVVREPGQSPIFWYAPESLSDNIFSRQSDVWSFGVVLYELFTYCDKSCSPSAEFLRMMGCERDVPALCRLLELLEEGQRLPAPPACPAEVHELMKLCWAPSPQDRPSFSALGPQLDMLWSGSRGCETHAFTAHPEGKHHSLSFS

This test concerns the target T1, JAK3 (recombinant human kinase domain; h-jak3(810-1124)) (Homo sapiens, UniProt P52333).
T1 construct: h-jak3(810- 1124)-sf9-c; made in house; host or cells: Sf9 insect cells
The test can be described thus: Determination of IC50 of Janus Kinase (JAK) inhibition: JAK3, radioactive end-point assay with 33P-ATP. To be noted: JAK3 kinase domain; ATP 1.5 uM, peptide 50 uM, 20 minutes, room temperature, 10% DMSO; read-out: Ic50 h-jak3(810-1124)-sf9-c:no additive. Format: biochemical.
Consider `Cc1ccccc1CNC(=O)c1ccc(-c2cnc3[nH]cc(C(=O)N[C@@H](C)C(C)(C)C)c3n2)s1` [Example I-187, 2-[5-(2-Methyl-benzylcarbamoyl)-thiophen-2-yl]-5H-pyrrolo[2,3-b]pyrazine-7-carboxylic acid ((S)-1,2,2-trimethyl-propyl)-amide], for which the IC50 amounted to 0.46 nM.

On to `C[C@H](NC(=O)c1c[nH]c2ncc(C3CC3)nc12)C1CCCCC1` [Example I-32, 2-Cyclopropyl-5H-pyrrolo[2,3-b]pyrazine-7-carboxylic acid ((S)-1-cyclohexyl-ethyl)-amide], for which the 50% inhibitory concentration (IC50) was found to be 20.1 nM.

Turning to `CC(C)NC(=O)c1c[nH]c2ncc(Oc3ccc4c(c3)[C@@H](O)CC4)nc12` [Example I-304, 2-((S)-3-Hydroxy-indan-5-yloxy)-5H-pyrrolo[2,3-b]pyrazine-7-carboxylic acid isopropylamide], the IC50 came out at 155 nM.

On to `C[C@@H](NC(=O)c1c[nH]c2ncc(Oc3ccccc3)nc12)C1CCCCC1` [Example I-129, 2-Phenoxy-5H-pyrrolo[2,3-b]pyrazine-7-carboxylic acid ((R)-1-cyclohexyl-ethyl)-amide], for which the IC50 came out at 222 nM.

Turning to `CCc1cccc(-n2cnc(-c3cnc4[nH]cc(C(=O)N[C@@H](C)C(C)(C)C)c4n3)c2)c1` [Example I-151, 2-[1-(3-Ethyl-phenyl)-1H-imidazol-4-yl]-5H-pyrrolo[2,3-b]pyrazine-7-carboxylic acid ((S)-1,2,2-trimethyl-propyl)-amide], the IC50 is 12.4 nM.

Consider `C[C@H](NC(=O)c1c[nH]c2ncc(-c3ccc(C(=O)NCCC(F)(F)F)s3)nc12)C(C)(C)C` [Example I-216, 2-[5-(3,3,3-Trifluoro-propylcarbamoyl)-thiophen-2-yl]-5H-pyrrolo[2,3-b]pyrazine-7-carboxylic acid ((S)-1,2,2-trimethyl-propyl)-amide], for which the IC50 was 0.18 nM.

Take `CC(C)(CO)CNC(=O)c1c[nH]c2ncc(Nc3ccccc3)nc12` [Example I-15, 2-Phenylamino-5H-pyrrolo[2,3-b]pyrazine-7-carboxylic acid (3-hydroxy-2,2-dimethyl-propyl)-amide]: the IC50 stood at 7.49 nM.

Regarding `CC(C)NC(=O)c1c[nH]c2ncc(Oc3ccc4c(c3)C(=O)CC4)nc12` [Example I-297, 2-(3-Oxo-indan-5-yloxy)-5H-pyrrolo[2,3-b]pyrazine-7-carboxylic acid isopropylamide], the IC50 came out at 573 nM.

Turning to `C[C@H](NC(=O)c1c[nH]c2ncc(C3CC3)nc12)C1(C#N)CCCCC1` [Example I-118, 2-Cyclopropyl-5H-pyrrolo[2,3-b]pyrazine-7-carboxylic acid [(S)-1-(1-cyano-cyclohexyl)-ethyl]-amide], the IC50 was 150 nM.

For `C[C@H](NC(=O)c1c[nH]c2ncc(C3CCCCC3)nc12)C(C)(C)O` [Example I-11, 2-Cyclohexyl-5H-pyrrolo[2,3-b]pyrazine-7-carboxylic acid ((S)-2-hydroxy-1,2-dimethyl-propyl)-amide], the IC50 stood at 152 nM.

Turning to `CC(C)NC(=O)c1c[nH]c2ncc(Oc3cccc(C(C)C)c3)nc12` [Example I-234, 2-(3-Isopropyl-phenoxy)-5H-pyrrolo[2,3-b]pyrazine-7-carboxylic acid isopropylamide], the half-maximal inhibitory concentration (IC50) worked out at 980 nM.

On to `CC[C@@H](CO)NC(=O)c1c[nH]c2ncc(C3CC3)nc12` [Example I-40, 2-Cyclopropyl-5H-pyrrolo[2,3-b]pyrazine-7-carboxylic acid ((S)-1-hydroxymethyl-propyl)-amide], for which the IC50 was found to be 128 nM.

Take `CC(C)NC(=O)c1c[nH]c2ncc(Oc3ccc4[nH]ccc4c3)nc12` [Example I-277, 2-(1H-Indol-5-yloxy)-5H-pyrrolo[2,3-b]pyrazine-7-carboxylic acid isopropylamide]: the half-maximal inhibitory concentration (IC50) came out at 229 nM.

For the compound `C[C@H]1C[C@H]1c1cnc2[nH]cc(C(=O)NCC(C)(C)CO)c2n1` [Example I-46, 2-((1R,2S)-2-Methyl-cyclopropyl)-5H-pyrrolo[2,3-b]pyrazine-7-carboxylic acid (3-hydroxy-2,2-dimethyl-propyl)-amide], the half-maximal inhibitory concentration (IC50) came out at 228 nM.

As to `C[C@H](NC(=O)c1c[nH]c2ncc(-c3ccc(C(=O)NCc4cccc(C(F)(F)F)c4)s3)nc12)C(C)(C)C` [Example I-207, 2-[5-(3-Trifluoromethyl-benzylcarbamoyl)-thiophen-2-yl]-5H-pyrrolo[2,3-b]pyrazine-7-carboxylic acid ((S)-1,2,2-trimethyl-propyl)-amide], the IC50 stood at 0.73 nM.

For `CC[C@H](CO)NC(=O)c1c[nH]c2ncc(C3CC3)nc12` [Example I-58, 2-Cyclopropyl-5H-pyrrolo[2,3-b]pyrazine-7-carboxylic acid ((R)-1-hydroxymethyl-propyl)-amide], the IC50 was 37.7 nM.

In the case of `CC[C@](C)(O)[C@H](C)NC(=O)c1c[nH]c2ncc(C3CC3)nc12` [Example I-31, 2-Cyclopropyl-5H-pyrrolo[2,3-b]pyrazine-7-carboxylic acid ((1S,2S)-2-hydroxy-1,2-dimethyl-butyl)-amide], the IC50 was 39.5 nM.

In the case of `CCNC(=O)c1c[nH]c2ncc(Oc3cccc(CC)c3)nc12` [Example I-249, 2-(3-Ethyl-phenoxy)-5H-pyrrolo[2,3-b]pyrazine-7-carboxylic acid ethylamide], the IC50 is 1590 nM.

`CC(C)(C(=O)O)C(NC(=O)c1c[nH]c2ncc(C3CC3)nc12)C1CC1` (stereo not shown) [Example I-92, 3-Cyclopropyl-3-[(2-cyclopropyl-5H-pyrrolo[2,3-b]pyrazine-7-carbonyl)-amino]-2,2-dimethyl-propionic acid]: the IC50 came to 95.1 nM.

Turning to `CCNC(=O)c1c[nH]c2ncc(Oc3cccc(C(C)(C)C)c3)nc12` [Example I-247, 2-(3-tert-Butyl-phenoxy)-5H-pyrrolo[2,3-b]pyrazine-7-carboxylic acid ethylamide], the IC50 amounted to 6460 nM.

As for `CC(C)NC(=O)c1c[nH]c2ncc(Oc3cccc(OC(F)(F)F)c3)nc12` [Example I-230, 2-(3-Trifluoromethoxy-phenoxy)-5H-pyrrolo[2,3-b]pyrazine-7-carboxylic acid isopropylamide], the IC50 worked out at 2610 nM.

In the case of `CC(C)(O)C(NC(=O)c1c[nH]c2ncc(C3CC3)nc12)C(F)(F)F` (stereo not shown) [Example I-93, 2-Cyclopropyl-5H-pyrrolo[2,3-b]pyrazine-7-carboxylic acid (2-hydroxy-2-methyl-1-trifluoromethyl-propyl)-amide], the 50% inhibitory concentration (IC50) was 57.8 nM.

For `C[C@H](Cc1cnc[nH]1)NC(=O)c1ccc(-c2cnc3[nH]cc(C(=O)N[C@@H](C)C(C)(C)C)c3n2)s1` [Example I-199, 2-{5-[(R)-2-(3H-Imidazol-4-yl)-1-methyl-ethylcarbamoyl]-thiophen-2-yl}-5H-pyrrolo[2,3-b]pyrazine-7-carboxylic acid ((S)-1,2,2-trimethyl-propyl)-amide], the IC50 is 0.65 nM.

Regarding `CC(C)(C#N)C(NC(=O)c1c[nH]c2ncc(C3CC3)nc12)C1CC1` (stereo not shown) [Example I-81, 2-Cyclopropyl-5H-pyrrolo[2,3-b]pyrazine-7-carboxylic acid (2-cyano-1-cyclopropyl-2,2-dimethyl-ethyl)-amide], the IC50 is 16 nM.

For the compound `CC[C@H](C)NC(=O)c1c[nH]c2ncc(C3CC3)nc12` [Example I-22, 2-Cyclopropyl-5H-pyrrolo[2,3-b]pyrazine-7-carboxylic acid ((S)-sec-butyl)-amide], the IC50 was 5.9 nM.

With `CC(C)NC(=O)c1c[nH]c2ncc(Oc3cccc4[nH]ccc34)nc12` [Example I-274, 2-(1H-Indol-4-yloxy)-5H-pyrrolo[2,3-b]pyrazine-7-carboxylic acid isopropylamide], the IC50 stood at 353 nM.

Turning to `C[C@H](NC(=O)c1c[nH]c2ncc(-c3ccc(C(=O)NCc4cccc(Cl)c4Cl)s3)nc12)C(C)(C)C` [Example I-186, 2-[5-(2,3-Dichloro-benzylcarbamoyl)-thiophen-2-yl]-5H-pyrrolo[2,3-b]pyrazine-7-carboxylic acid ((S)-1,2,2-trimethyl-propyl)-amide], the IC50 was 0.46 nM.

Regarding `CC(C)(C)[C@H](CC#N)NC(=O)c1c[nH]c2ncc(C3CC3)nc12` [Example I-77, 2-Cyclopropyl-5H-pyrrolo[2,3-b]pyrazine-7-carboxylic acid ((S)-1-cyanomethyl-2,2-dimethyl-propyl)-amide], the IC50 turned out to be 13.7 nM.

`C[C@@H](NC(=O)c1c[nH]c2ncc(Oc3ccccc3)nc12)C(C)(C)O` [Example I-116, 2-Phenoxy-5H-pyrrolo[2,3-b]pyrazine-7-carboxylic acid ((R)-2-hydroxy-1,2-dimethyl-propyl)-amide]: the IC50 came to 682 nM.

With `C[C@H](NC(=O)c1c[nH]c2ncc(-c3ccc(C(=O)NCCS(N)(=O)=O)s3)nc12)C(C)(C)C` [Example I-173, 2-[5-(2-Sulfamoyl-ethylcarbamoyl)-thiophen-2-yl]-5H-pyrrolo[2,3-b]pyrazine-7-carboxylic acid ((S)-1,2,2-trimethyl-propyl)-amide], the IC50 amounted to 0.2 nM.

As for `CON(C)C(=O)c1ccc(-c2cnc3[nH]cc(C(=O)N[C@@H](C)C(C)(C)C)c3n2)s1` [Example I-196, 2-[5-(Methoxy-methyl-carbamoyl)-thiophen-2-yl]-5H-pyrrolo[2,3-b]pyrazine-7-carboxylic acid ((S)-1,2,2-trimethyl-propyl)-amide], the IC50 is 0.47 nM.

In the case of `N#CCNC(=O)c1c[nH]c2ncc(C3CC3)nc12` [Example I-28, 2-Cyclopropyl-5H-pyrrolo[2,3-b]pyrazine-7-carboxylic acid cyanomethyl-amide], the IC50 amounted to 681 nM.

Turning to `C[C@H](NC(=O)c1c[nH]c2ncc(C3CC3)nc12)[C@](C)(O)C(F)(F)F` [Example I-63, 2-Cyclopropyl-5H-pyrrolo[2,3-b]pyrazine-7-carboxylic acid ((1S,2S)-3,3,3-trifluoro-2-hydroxy-1,2-dimethyl-propyl)-amide], the IC50 is 30.5 nM.

Turning to `CC(C)(C)CNC(=O)c1c[nH]c2ncc(C3CC3)nc12` [Example I-55, 2-Cyclopropyl-5H-pyrrolo[2,3-b]pyrazine-7-carboxylic acid (2,2-dimethyl-propyl)-amide], the IC50 came to 29.4 nM.
